In patent US20140303546A1, “LASER ASSISTED DELIVERY OF FUNCTIONAL CELLS, PEPTIDES AND NUCLEOTIDES” (priority 2011, published 2014):

System: Methicillin resistant Staphylococcus aureus (MRSA) biofilms
Experiment: MRSA biofilm deep partial thickness wound model
Assay type: in vivo
Conditions: 24 hours after treatment; for reduction of MRSA counts in wounds: porcine wounds
Method: Rectangular wounds measuring (10 mm×7 mm×0.5 mm) were made on the paravertebral and thoracic area (porcine) with a specialized electrokeratome fitted with a 7 mm blade. Wounds were inoculated with 250 μL of a 10^6 CFU/ml suspension and covered individually with a polyurethane film dressing to allow for biofilm formation. After 24 hours, the dressings were removed and wounds were randomly assigned to one of the following treatment groups: 1) untreated control, 2) ErYag, 3) ErYag plus gentamycin or 3) gentamycin alone. After treatment the wounds were covered with a new polyurethane film dressing and after 24 hours wounds were recovered for MRSA counts using a well published scrub technique. Oxicillin resistance screening agar (ORSAB) was used to isolate MRSA from the wounds. All plates were incubated aerobically overnight (16-24 hours) at 37° C., after which the number of viable colonies will be counted.
Methicillin resistant Staphylococcus aureus (MRSA) biofilms were created using a deep partial thickness wound model (described above). Wounds were randomly assigned to one of the following treatment groups: 1) untreated control, 2) ErYag, 3) ErYag plus gentamycin or 3) gentamycin alone. Twenty four hours after treatment, MRSA was recovered. […] However in combination (Laser+gentamycin) were able to reduce MRSA counts by 1.72 Log CFU/ml.

[1] = in combination with ErYag laser

Substance: gentamycin
- reduction of MRSA counts in wounds (gentamycin alone): 0.6 Log CFU/ml
- reduction in MRSA [1]: 98.09%
- reduction of MRSA counts in wounds [1]: 1.72 Log CFU/ml
